Test system: ACE
Test: Determination of ACE inhibitory activity (HHL substrate, hippuric acid measured by HPLC)
Format: biochemical
Conditions: for IC50: ACE inhibition, IC50 found from the inhibition rate vs concentration curve
Experimental: (2) Determination Method of ACE Inhibitory Activity
10 μL of ACE solution (0.25 U/mL, ACE enzyme was dissolved into pH 7 potassium phosphate buffer) was respectively added into a sample tube (B) and a blank tube (A), 10 μL of ACEI was added into the sample tube, 10 μL of buffer was added into the blank tube, samples were incubated for 5 min at 37° C., then 30 μL of HHL solution ([…], HHL was dissolved into pH 8.3 0.1 mol·L^−1 borate buffer, containing 0.3 mol·L^−1 NaCl) was added, the above materials reacted for 1 h at 37° C., and then 80 μL of 1.0 mol/L HCl was added to terminate the reaction, so as to obtain a reaction solution, seen in Table 2.
Mobile phase and chromatographic conditions: acetonitrile: ultrapure water=25:75 (including 0.1% (V/V) TFA), flow rate: 1 mL/min; detection wavelength: 228 nm; column temperature: 30° C.; injection volume: 20 μL.
Principle: HHL was rapidly decomposed under the catalysis of ACE to produce hippuric acid (Hip) and dipeptide (His-Leu, HL). Hippuric acid has the maximum absorption at 228 nm. When ACEI samples were added, the activity of the ACE enzyme was inhibited and the production amount of hippuric acid was reduced. Therefore, the inhibition rate of ACEI on ACE activity can be evaluated by measuring the production amount of hippuric acid by HPLC.
In the formula, R: an inhibition rate (%) of ACEI sample on ACE; • A: a peak area of hippuric acid in control group • B: a peak area of hippuric acid in ACEI addition group • A0: a peak area of hippuric acid in blank group
Where, IC50 is defined as a concentration of an inhibitor required when a half of ACE enzyme activity is inhibited under certain conditions. There was no a linear relationship between the inhibition rate and the concentration of the formulation, and therefore a curve of a relationship between the inhibition rate and the concentration of the formulation was firstly plotted, and then IC50 was found out from the curve. […]

Row | Substance | IC50 (listed as oligopeptide) [µg/mL] | inhibition rate on ACE (concentration of the sample 1 mg/mL) [%] | IC50 [µg/mL]
1 | LIIPEH [RP-HCLP separated monomer H6, Leu-Ile-Ile-Pro-Glu-His, Oligopeptide LIIPEH separated and purified from rice wine lees] | 280.00 ± 5.77 | 91.72 | –
2 | LIIPEH [Artificially synthesized monomer H6, Leu-Ile-Ile-Pro-Glu-His, Synthesized LIIPEH by Shanghai jiepeptide Biotechnology Co., Ltd] | – | – | 56.67 ± 12.02

From US20250263434A1, “OLIGOPEPTIDE HAVING BLOOD PRESSURE REDUCING EFFECT, AND PREPARATION METHOD THEREFOR AND APPLICATION THEREOF” (South China Agricultural University, priority 2020, published 2025)
